In publication PMC3362725, “An open-label, phase 1 study evaluating safety, tolerability, and pharmacokinetics of linifanib (ABT-869) in Japanese patients with solid tumors” (Cancer Chemotherapy and Pharmacology, 2012):

Columns and labels:
[1] = parameters: method as in PMID 19720910; details: cited from earlier work
PlGF = assay: Plasma PlGF biomarker (Abbott Architect kits); type: in vivo, human (Japanese patients with solid tumors)
Description: Plasma for biomarker analysis was collected before linifanib administration on C1D1, C1D15, C2D1, and at the final visit. Concentration of PlGF was determined using Abbott Architect® kits. The relationship of PlGF levels to outcomes was assessed post hoc. To assess the relationship between PlGF induction and toxicity, patients were grouped into those requiring and not requiring dose interruption during the first 30 days of therapy. Median PlGF increase from baseline to C1D15 was compared as a function of toxicity group. To assess the relationship between PlGF induction and efficacy, patients were segregated into those with progressive disease (PD; N = 6) or stable disease (SD; N = 10) at C6, and PlGF increase from baseline to C1D15 was compared.

HT1080 fibrosarcoma = system: HT1080 fibrosarcoma; parameters: method as in PMID 16648571; details: predicted based on preclinical murine HT1080 fibrosarcoma model; cited from earlier work

Compound: Cc1ccc(F)c(NC(=O)Nc2ccc(-c3cccc4[nH]nc(N)c34)cc2)c1 [linifanib, N-(4-(3-amino-1H-indazol-4-yl)phenyl)-N’-(2-fluoro-5-methylphenyl)urea]
- patients with Grade 3 hypertension ([1]; non-Japanese Asian patients, recommended phase 2 dose): 8%
- recommended phase 2 dose ([1]; prior phase 1 study in non-Japanese): 0.25 mg/kg
- induction of PlGF on C1D15 and C2D1 (PlGF; 0.05–0.25 mg/kg once daily): dose-dependent
- median (±SD) increase in PlGF from baseline to C1D15 (PlGF; 11 patients with dose interruption in first 30 days): 79.9 (±55.0) pg/mL
- PlGF change from baseline to C1D15 as a function of response classification (PlGF; PD (n = 6) versus SD (n = 10) at C6, p = 0.7): No statistically significant difference
- median (±SD) increase in PlGF from baseline to C1D15 (PlGF; five patients without dose interruption in first 30 days, ±16.2): 22.8 pg/mL
- PlGF concentration at the final visit (PlGF; patients no longer on therapy): returned to near baseline levels
- efficacious plasma exposure at steady state (HT1080 fibrosarcoma): ≥ 2.7 µg·h/mL
